The record followed here is ChEMBL document CHEMBL5291721, “A preclinical secondary pharmacology resource illuminates target-adverse drug reaction associations of marketed drugs” (Nat Commun, 2023).

Molecules are shown by their SMILES.

The target of assay [1] is Gamma-aminobutyric acid receptor subunit alpha-1/alpha-2/beta-2/gamma-2 (Homo sapiens, UniProt P14867+P18507+P47869+P47870). Type of assay: protein-complex assay.
Assay [2] has as its target T1, Thromboxane A2 receptor (Homo sapiens, UniProt P21731).
T1 sequence (P21731 whole entry): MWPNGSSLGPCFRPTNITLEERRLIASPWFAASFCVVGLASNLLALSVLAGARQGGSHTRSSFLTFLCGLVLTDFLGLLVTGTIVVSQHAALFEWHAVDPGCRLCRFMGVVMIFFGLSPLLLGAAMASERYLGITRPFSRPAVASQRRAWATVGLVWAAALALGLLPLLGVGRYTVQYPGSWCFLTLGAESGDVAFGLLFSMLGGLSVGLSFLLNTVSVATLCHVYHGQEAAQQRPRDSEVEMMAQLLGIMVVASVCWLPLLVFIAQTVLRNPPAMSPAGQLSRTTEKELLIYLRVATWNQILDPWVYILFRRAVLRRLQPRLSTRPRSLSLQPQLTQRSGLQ
Type of assay: functional, cell-based.

Assay [3] deals with T2, Muscarinic acetylcholine receptor M1 (Homo sapiens, UniProt P11229).
T2 sequence (P11229 whole entry): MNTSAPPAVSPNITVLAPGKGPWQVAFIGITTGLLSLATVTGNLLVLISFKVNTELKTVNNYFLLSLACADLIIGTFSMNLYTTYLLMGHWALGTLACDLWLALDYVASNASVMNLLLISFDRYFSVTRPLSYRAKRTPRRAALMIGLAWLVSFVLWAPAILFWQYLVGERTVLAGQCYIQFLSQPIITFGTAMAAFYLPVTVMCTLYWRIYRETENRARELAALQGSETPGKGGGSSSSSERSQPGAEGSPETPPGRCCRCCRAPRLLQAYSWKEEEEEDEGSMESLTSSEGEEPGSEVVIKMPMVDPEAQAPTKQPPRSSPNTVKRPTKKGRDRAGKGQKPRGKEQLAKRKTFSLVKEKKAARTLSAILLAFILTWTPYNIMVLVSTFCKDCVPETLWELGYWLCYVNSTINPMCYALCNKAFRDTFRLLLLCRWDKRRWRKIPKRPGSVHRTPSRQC
Type of assay: functional, cell-based.

Assay [4] concerns the target T2, Muscarinic acetylcholine receptor M1. Format: functional, cell-based. This is another data set of the same source.
Assay [5] concerns the target T3, Androgen receptor (Homo sapiens, UniProt P10275).
T3 sequence (P10275 whole entry): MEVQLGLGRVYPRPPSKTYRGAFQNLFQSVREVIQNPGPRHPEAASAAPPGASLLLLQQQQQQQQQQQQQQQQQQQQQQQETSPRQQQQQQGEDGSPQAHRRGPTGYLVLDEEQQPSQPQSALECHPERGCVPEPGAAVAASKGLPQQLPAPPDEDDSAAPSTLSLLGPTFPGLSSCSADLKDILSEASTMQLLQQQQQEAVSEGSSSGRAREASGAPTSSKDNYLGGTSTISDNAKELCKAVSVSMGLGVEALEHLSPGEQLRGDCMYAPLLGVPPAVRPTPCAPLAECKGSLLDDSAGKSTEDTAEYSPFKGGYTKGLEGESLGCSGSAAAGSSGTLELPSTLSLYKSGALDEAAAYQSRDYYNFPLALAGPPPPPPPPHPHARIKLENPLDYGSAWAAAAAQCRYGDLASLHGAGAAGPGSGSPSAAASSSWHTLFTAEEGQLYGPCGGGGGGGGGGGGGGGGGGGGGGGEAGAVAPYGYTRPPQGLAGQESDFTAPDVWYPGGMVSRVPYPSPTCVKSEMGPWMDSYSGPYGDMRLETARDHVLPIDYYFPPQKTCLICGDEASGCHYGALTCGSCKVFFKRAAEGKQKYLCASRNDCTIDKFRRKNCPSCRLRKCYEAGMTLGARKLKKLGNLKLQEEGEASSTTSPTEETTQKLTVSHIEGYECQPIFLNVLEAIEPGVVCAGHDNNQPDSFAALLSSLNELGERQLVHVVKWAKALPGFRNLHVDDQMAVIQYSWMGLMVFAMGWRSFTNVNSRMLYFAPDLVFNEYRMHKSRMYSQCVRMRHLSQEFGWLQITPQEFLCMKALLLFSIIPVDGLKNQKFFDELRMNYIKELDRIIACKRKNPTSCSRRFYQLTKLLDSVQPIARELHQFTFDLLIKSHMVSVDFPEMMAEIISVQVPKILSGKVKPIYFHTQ

In assay [6] the target is T2, Muscarinic acetylcholine receptor M1. Format: functional.
Assay [7] concerns the target Melanocortin receptor 3 (Homo sapiens, UniProt P41968).
For assay [8], the target named is 5-hydroxytryptamine receptor 2A (Homo sapiens, UniProt P28223). Type of assay: functional, cell-based.
Assay [9] addresses Gamma-aminobutyric acid receptor subunit alpha-1 (Rattus norvegicus, UniProt P62813).
For assay [10], the target named is Voltage-dependent L-type calcium channel subunit alpha-1C (Rattus norvegicus, UniProt P22002). Format: functional.
The target in assay [11] is Cannabinoid receptor 1 (Homo sapiens, UniProt P21554). Type of assay: functional, cell-based.
In assay [12] the target is 5-hydroxytryptamine receptor 2B (Homo sapiens, UniProt P41595). Format: functional, cell-based.
The target in assay [13] is Kappa-type opioid receptor (Homo sapiens, UniProt P41145).
The target in assay [14] is Glutamate receptor ionotropic, NMDA 1 (Rattus norvegicus, UniProt P35439).
Also: assay procedure not described here.

Gamma-aminobutyric acid receptor subunit alpha-1, sequence (P62813 whole entry): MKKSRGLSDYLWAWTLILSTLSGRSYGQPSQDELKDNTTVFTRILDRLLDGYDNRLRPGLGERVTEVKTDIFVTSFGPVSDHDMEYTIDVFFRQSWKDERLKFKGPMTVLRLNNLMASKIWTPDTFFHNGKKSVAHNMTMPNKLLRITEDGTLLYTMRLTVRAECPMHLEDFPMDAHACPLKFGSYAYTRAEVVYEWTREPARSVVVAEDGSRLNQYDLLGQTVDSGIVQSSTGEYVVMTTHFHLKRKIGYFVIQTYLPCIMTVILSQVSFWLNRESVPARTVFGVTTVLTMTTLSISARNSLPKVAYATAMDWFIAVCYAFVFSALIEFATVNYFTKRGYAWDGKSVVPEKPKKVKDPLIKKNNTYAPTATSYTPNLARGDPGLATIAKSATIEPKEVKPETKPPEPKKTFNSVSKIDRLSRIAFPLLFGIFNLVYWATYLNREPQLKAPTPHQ
Gamma-aminobutyric acid receptor subunit alpha-1/alpha-2/beta-2/gamma-2, sequence (P14867 whole entry): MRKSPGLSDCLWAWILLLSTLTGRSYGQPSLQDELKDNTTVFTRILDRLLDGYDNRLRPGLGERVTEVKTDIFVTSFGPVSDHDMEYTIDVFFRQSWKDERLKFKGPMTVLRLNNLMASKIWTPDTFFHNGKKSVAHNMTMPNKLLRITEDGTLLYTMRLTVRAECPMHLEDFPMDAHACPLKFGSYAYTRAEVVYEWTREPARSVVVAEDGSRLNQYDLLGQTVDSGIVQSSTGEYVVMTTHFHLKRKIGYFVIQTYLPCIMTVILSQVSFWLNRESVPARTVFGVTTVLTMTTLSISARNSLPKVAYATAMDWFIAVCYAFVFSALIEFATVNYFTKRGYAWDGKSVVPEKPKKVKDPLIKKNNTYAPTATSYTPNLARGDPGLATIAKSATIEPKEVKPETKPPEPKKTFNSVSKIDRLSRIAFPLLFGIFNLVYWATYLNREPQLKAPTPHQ
Gamma-aminobutyric acid receptor subunit alpha-1/alpha-2/beta-2/gamma-2, sequence (P47870 whole entry): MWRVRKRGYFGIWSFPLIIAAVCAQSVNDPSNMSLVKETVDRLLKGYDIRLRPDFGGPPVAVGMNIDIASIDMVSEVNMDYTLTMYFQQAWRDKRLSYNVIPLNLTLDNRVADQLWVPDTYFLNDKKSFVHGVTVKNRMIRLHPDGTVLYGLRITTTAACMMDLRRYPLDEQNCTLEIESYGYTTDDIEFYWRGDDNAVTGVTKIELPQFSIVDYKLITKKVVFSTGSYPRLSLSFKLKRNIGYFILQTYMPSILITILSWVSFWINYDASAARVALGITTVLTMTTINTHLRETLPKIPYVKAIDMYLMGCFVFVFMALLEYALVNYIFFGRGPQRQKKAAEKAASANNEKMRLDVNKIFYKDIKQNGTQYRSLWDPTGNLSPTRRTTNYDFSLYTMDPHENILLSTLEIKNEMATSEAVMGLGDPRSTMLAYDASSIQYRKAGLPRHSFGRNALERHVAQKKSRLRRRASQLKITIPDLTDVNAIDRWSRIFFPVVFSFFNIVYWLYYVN
Gamma-aminobutyric acid receptor subunit alpha-1/alpha-2/beta-2/gamma-2, sequence (P18507 whole entry): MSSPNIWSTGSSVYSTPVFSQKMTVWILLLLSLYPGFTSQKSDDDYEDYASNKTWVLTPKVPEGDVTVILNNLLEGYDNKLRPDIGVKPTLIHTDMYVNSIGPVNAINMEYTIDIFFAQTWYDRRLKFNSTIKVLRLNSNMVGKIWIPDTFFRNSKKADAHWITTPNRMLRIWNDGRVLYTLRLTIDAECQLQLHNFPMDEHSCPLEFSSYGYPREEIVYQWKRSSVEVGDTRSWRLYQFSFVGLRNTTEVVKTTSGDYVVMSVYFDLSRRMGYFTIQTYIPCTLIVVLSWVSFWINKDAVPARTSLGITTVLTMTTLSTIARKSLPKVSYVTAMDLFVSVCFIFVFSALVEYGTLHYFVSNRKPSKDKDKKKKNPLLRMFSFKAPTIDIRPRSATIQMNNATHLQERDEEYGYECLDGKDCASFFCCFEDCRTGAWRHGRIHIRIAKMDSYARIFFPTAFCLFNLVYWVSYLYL
Gamma-aminobutyric acid receptor subunit alpha-1/alpha-2/beta-2/gamma-2, sequence (P47869 whole entry): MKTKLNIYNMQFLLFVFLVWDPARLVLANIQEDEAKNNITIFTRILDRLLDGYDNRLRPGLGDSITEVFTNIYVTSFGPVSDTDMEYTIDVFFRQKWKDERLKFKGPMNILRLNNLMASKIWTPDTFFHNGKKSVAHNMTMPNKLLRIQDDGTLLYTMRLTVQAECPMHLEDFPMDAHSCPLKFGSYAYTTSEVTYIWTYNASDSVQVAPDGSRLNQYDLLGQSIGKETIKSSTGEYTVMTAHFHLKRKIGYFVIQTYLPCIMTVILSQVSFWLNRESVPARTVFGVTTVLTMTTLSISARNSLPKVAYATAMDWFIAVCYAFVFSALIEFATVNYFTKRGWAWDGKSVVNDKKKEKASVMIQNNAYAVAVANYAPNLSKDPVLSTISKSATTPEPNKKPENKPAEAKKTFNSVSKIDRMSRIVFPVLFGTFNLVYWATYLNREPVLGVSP
Voltage-dependent L-type calcium channel subunit alpha-1C, sequence (P22002 whole entry): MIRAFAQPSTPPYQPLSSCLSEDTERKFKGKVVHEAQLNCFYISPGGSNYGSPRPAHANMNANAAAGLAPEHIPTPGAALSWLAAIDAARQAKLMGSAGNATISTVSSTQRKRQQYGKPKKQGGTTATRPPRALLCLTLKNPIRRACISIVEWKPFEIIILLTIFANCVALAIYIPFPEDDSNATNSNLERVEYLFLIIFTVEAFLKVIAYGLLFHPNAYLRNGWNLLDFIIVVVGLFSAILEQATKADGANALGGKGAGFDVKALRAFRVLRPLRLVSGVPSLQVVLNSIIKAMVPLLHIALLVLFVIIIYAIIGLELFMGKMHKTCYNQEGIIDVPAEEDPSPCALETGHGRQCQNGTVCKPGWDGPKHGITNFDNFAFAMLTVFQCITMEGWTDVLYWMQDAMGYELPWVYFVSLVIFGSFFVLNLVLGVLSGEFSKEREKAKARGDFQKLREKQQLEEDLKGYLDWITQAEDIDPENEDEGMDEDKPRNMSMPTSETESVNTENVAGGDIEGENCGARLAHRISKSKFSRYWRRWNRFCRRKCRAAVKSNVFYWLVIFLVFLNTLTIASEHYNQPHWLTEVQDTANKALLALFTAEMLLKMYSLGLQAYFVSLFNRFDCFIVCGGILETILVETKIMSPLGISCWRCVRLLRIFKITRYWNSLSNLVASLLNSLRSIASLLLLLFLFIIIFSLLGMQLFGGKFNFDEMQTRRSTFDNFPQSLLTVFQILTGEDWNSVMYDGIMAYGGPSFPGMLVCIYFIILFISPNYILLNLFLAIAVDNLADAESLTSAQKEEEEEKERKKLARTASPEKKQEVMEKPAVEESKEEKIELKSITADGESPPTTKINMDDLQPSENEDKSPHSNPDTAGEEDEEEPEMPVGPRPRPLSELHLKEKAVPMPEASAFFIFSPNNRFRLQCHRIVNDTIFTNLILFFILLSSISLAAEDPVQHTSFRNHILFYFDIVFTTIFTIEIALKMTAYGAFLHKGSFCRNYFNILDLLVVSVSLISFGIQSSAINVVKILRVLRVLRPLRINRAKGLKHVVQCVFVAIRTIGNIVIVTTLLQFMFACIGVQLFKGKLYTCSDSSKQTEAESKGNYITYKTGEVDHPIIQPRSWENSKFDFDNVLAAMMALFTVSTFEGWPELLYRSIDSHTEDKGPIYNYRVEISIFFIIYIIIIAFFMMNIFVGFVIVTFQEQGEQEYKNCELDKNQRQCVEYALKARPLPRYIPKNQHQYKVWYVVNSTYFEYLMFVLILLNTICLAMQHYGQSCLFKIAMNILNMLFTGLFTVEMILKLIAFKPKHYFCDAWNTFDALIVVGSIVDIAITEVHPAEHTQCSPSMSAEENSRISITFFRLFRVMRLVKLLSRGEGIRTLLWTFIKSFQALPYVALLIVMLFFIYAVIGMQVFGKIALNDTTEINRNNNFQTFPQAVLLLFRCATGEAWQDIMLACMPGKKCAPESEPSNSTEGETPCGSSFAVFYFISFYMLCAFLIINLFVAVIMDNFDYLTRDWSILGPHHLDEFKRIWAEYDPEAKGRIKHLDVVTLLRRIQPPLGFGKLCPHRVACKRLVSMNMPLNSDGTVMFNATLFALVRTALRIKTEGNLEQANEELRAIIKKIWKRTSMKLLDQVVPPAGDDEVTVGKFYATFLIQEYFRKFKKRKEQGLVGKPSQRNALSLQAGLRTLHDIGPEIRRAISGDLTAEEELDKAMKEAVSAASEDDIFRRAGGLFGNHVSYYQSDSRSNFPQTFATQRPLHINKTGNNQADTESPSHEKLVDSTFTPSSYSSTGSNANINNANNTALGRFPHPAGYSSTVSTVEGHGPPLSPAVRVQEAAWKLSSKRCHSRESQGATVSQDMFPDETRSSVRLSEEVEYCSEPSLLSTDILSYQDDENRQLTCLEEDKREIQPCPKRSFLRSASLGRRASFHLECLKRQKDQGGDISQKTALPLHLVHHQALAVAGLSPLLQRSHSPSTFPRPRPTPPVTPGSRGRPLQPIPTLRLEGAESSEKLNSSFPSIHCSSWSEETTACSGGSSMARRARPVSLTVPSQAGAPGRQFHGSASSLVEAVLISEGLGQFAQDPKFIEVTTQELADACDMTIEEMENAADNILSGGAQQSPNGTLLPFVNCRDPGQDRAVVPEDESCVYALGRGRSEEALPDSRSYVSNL
5-hydroxytryptamine receptor 2B, sequence (P41595 whole entry): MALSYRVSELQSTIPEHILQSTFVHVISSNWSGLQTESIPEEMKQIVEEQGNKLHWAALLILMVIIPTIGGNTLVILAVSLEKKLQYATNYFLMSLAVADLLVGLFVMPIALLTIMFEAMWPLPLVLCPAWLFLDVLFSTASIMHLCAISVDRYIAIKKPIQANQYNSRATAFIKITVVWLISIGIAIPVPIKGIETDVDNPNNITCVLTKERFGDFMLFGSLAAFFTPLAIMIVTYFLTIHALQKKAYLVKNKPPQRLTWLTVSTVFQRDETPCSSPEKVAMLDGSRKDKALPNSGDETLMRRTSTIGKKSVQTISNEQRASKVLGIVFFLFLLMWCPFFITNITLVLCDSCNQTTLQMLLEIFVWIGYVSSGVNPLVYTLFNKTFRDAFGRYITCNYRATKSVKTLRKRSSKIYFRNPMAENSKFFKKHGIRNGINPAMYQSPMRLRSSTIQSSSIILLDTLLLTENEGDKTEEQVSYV

For `Cc1ccc(Cl)c(Nc2ccccc2C(=O)O)c1Cl` [MECLOFENAMIC ACID], the results for the AC50 in assay [1] and in [2] were above 3 µM and 20 µM, respectively.

For the compound `Nc1ccc(C(=O)NCC(=O)O)cc1` [AMINOHIPPURIC ACID], the half-maximal activity concentration (AC50) in [1], in assay [2], in [3] and in [4] was above 30 µM in each case.

For `C[C@@H]1O[C@@H](O[C@H]2C[C@@H](O)[C@]3(CO)[C@H]4[C@H](O)C[C@]5(C)[C@@H](C6=CC(=O)OC6)CC[C@]5(O)[C@@H]4CC[C@]3(O)C2)[C@H](O)[C@H](O)[C@H]1O` [OUABAIN], the AC50 in assay [1], in assay [2] and in assay [5] was above 30 µM in each case.

Take `Oc1ccc(OCc2ccccc2)cc1` [MONOBENZONE]: the concentration at half-maximal activity (AC50) in assay [1], in assay [2] and in [5] was above 30 µM throughout.

Regarding `CCn1c(=O)c2c(nc(/C=C/c3ccc(OC)c(OC)c3)n2C)n(CC)c1=O` [ISTRADEFYLLINE], the AC50 in [1], in assay [2], in [6], in assay [3], in [7] and in assay [4] was above 30 µM each time. Also, the AC50 – broadly, the midpoint of the concentration-response curve, whichever way the signal moves – in [8] is above 30 µM.

For the compound `NS(=O)(=O)c1cc2c(cc1Cl)NC(C(Cl)Cl)NS2(=O)=O` (stereo not drawn) [TRICHLORMETHIAZIDE], the AC50 in assay [1] and in assay [2] was above 30 µM in each case.

Compound `CC(C)N1CCN(c2ccc(OCC3COC(Cn4cncn4)(c4ccc(Cl)cc4Cl)O3)cc2)CC1` (stereo not drawn) [TERCONAZOLE] showed an AC50 in assay [1] above 30 µM.

Turning to `Cc1c(C(C)C)c(=O)n(-c2ccccc2)n1C` [PROPYPHENAZONE], the half-maximal activity concentration (AC50) in assay [1], in assay [2], in assay [3] and in assay [4] was above 30 µM throughout.

For `CN1CCCC(CC2c3ccccc3Sc3ccccc32)C1` (stereo not drawn) [METHIXENE], the values for the AC50 in assay [1], in [3] and in [4] were above 30 µM, above 30 µM and 0.0109 µM, respectively.

On to `COc1ncnc(NS(=O)(=O)c2ccc(N)cc2)c1OC` [SULFADOXINE], for which the AC50 in assay [1], in [9] and in assay [2] was above 30 µM each time.

As to `Cc1ccc(O)c([C@H](CCN(C(C)C)C(C)C)c2ccccc2)c1` [TOLTERODINE], the AC50 in [10] was above 10 µM; in assay [1], above 30 µM; in [9], above 30 µM; in assay [6], 0.0051 µM; in [11], above 30 µM; in assay [12], above 10 µM. Further, the AC50 is 6.71 µM in assay [13], above 30 µM in assay [3], 0.0206 µM in assay [4] and above 10 µM in assay [14].

Take `Cc1ncc(CO)c(CO)c1O` [PYRIDOXINE]: the AC50 in assay [1], in assay [9], in assay [2], in assay [3] and in assay [4] was above 30 µM in each case.

With `O=NN(CCCl)C(=O)NCCCl` [CARMUSTINE], the concentration at half-maximal activity (AC50) in [9] and in assay [5] was above 30 µM throughout.

For `CCOc1ccc(Cc2nccc3cc(OCC)c(OCC)cc23)cc1OCC` [ETHAVERINE], the AC50 in [9] was above 30 µM; in [2] it was 14.1 µM; in assay [3], above 30 µM; in assay [4] it was 1.66 µM; in assay [5], above 30 µM.

Turning to `CC(=O)OCC(=O)[C@@]1(OC(C)=O)[C@@H](C)C[C@H]2[C@@H]3C[C@H](F)C4=CC(=O)C=C[C@]4(C)[C@@]3(F)[C@@H](O)C[C@@]21C` [DIFLORASONE DIACETATE], the AC50 in assay [1] and in assay [2] was above 30 µM in each case.

As for `C#C[C@]1(OC(C)=O)CC[C@H]2[C@@H]3CCC4=CC(=O)CC[C@@H]4[C@H]3CC[C@@]21C` [NORETHINDRONE ACETATE], the values for the AC50 in assay [1] and in assay [2] were above 10 µM and 9.74 µM, respectively.

On to `Cc1cnc(C(=O)O)c[n+]1[O-]` [ACIPIMOX], for which the concentration at half-maximal activity (AC50) in assay [1], in assay [2], in assay [3] and in assay [4] was above 30 µM throughout.

Turning to `CCCCC(=O)O[C@H]1CC[C@H]2[C@@H]3CCc4cc(O)ccc4[C@H]3CC[C@]12C` [ESTRADIOL VALERATE], the AC50 in assay [1] is above 10 µM; in assay [2], 23.1 µM; in assay [3], above 30 µM; in assay [4] it was 23.1 µM.

For the compound `O=c1[nH]c(=O)n([C@H]2C[C@H](O)[C@@H](CO)O2)cc1/C=C/Br` [BRIVUDINE], the AC50 in [1], in assay [2], in [3] and in [4] was above 30 µM throughout.

Regarding `COc1cc(C[C@@H]2NCCc3cc(O)c(O)cc32)cc(OC)c1OC` [TRETOQUINOL], the half-maximal activity concentration (AC50) in assay [1], in assay [3] and in [4] was above 30 µM throughout.

Take `C[C@H]1C[C@H]2[C@@H]3CCC4=CC(=O)C=C[C@]4(C)[C@@]3(F)[C@@H](O)C[C@]2(C)[C@@]1(O)C(=O)CO` [BETAMETHASONE]: the AC50 in assay [1] and in [2] was above 30 µM each time.

Take `NC(=O)N/N=C/c1ccc([N+](=O)[O-])o1` [NITROFURAZONE]: the concentration at half-maximal activity (AC50) in assay [1], in assay [9], in assay [2], in [3] and in assay [4] was above 30 µM in each case.

Consider `CC(O)(CC(=O)O)CC(=O)O` [MEGLUTOL], for which the concentration at half-maximal activity (AC50) in assay [9] is above 30 µM; in assay [2], 13.8 µM; in assay [3], above 30 µM; in assay [4] it was 9.87 µM; in assay [5], above 30 µM.

For the compound `C[C@@H]1CN(c2c(F)c(N)c3c(=O)c(C(=O)O)cn(C4CC4)c3c2F)C[C@H](C)N1` [SPARFLOXACIN], the AC50 in assay [1] and in [2] was above 30 µM in each case.

With `Nc1ccn(C[C@@H](CO)OCP(=O)(O)O)c(=O)n1` [CIDOFOVIR], the AC50 in [1], in assay [2], in assay [3] and in [4] was above 30 µM in each case.

As for `N[C@@H](Cc1ccc(N(CCCl)CCCl)cc1)C(=O)O`, the AC50 in [1] and in assay [2] was above 30 µM each time.

Consider `[H]/N=C(/N)NS(=O)(=O)c1ccc(N)cc1` [SULFAGUANIDINE], for which the half-maximal activity concentration (AC50) in assay [9], in [2], in [3], in [4] and in assay [5] was above 30 µM in each case.

On to `CC1(C)CCC(C)(C)c2cc(NC(=O)c3ccc(C(=O)O)cc3)ccc21` [TAMIBAROTENE], for which the concentration at half-maximal activity (AC50) is above 30 µM in assay [9], 9.94 µM in [2], above 30 µM in [3] and above 10 µM in [4].

On to `CC(CN(C)C)CN1c2ccccc2CCc2ccccc21` (stereo not drawn) [TRIMIPRAMINE], for which the AC50 in assay [1] is above 30 µM.
